# Test results reported in US20260209777A1, “TARGETING GLYCOSYLPHOSPHATIDYLINOSITOL (GPI) PATHWAY PROTEINS TO TREAT OVARIAN CANCER” (UNIVERSITY OF MASSACHUSETTS, priority 2023, published 2026).
# How the values were obtained:
# GPAA1 = target: T1, GPAA1 (Homo sapiens, UniProt O43292); assay: Cellular thermal stability shift assay (CETSA); format: binding; conditions: OVCAR8 cells, bestatin 100 μM for 2 hours, relative to DMSO (FIG. 6B)
# T1 construct: endogenous in cells; host or cells: OVCAR8 human ovarian cancer cells (Creative Biolabs, Cat #IOC-ZP305)
# T1 sequence (O43292 1-621): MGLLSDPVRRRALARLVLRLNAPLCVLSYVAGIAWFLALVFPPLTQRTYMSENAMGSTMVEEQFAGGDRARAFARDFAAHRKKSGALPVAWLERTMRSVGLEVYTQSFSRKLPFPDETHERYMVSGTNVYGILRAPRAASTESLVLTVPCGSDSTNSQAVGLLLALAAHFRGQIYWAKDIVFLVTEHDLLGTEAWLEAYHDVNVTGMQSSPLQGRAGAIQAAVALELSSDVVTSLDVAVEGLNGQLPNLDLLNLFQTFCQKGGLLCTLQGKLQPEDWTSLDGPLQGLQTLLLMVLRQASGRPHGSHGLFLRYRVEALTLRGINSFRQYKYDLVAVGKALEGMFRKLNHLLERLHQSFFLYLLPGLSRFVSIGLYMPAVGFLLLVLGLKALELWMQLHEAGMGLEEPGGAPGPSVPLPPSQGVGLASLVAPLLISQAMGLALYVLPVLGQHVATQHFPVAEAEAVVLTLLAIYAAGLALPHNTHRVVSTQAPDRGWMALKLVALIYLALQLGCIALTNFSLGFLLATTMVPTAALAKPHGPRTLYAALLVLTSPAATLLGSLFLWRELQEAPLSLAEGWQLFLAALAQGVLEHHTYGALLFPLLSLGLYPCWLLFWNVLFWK
# Protocol: CETSA: CETSA assays were performed as described previously (Jafari et al., Nat Protoc 2014, 9(9):2100-22). In brief, […] OVCAR8 cells were treated with DMSO or 100 μM bestatin for 2 hours. Cells (50 μl) were aliquoted in PCR tubes and incubated at room temperature (25° C.) or at a range of temperatures (37° C. to 65.2° C.) in a thermal cycler for 3 min and cooled to 4° C. Cells were lysed using Alpha SureFire Ultra Lysis Buffer (PerkinElmer, Cat #ASLU-LB) supplemented with Halt Protease Inhibitor Cocktail (ThermoFisher Scientific, Cat #78430). Insoluble proteins were separated by centrifugation at 15000×g for 30 mins at 4° C. Equal volumes of each sample were separated by SDS-PAGE and detected by immunoblotting blotting using an anti-GPAA1 polyclonal antibody (Invitrogen, Cat #PA5-100548). Three independent experiments were performed. Densitometry of the blots was performed using ImageJ software and the graph was plotted using GraphPad Prism 9.0.
# Due to the predicted structural similarity between GPAA1 and M28-type metallopeptidases, we hypothesized that GPAA1 may be inhibited by bestatin and carried out a series of experiments to test this possibility. […] The ligand-bound proteins in the soluble fraction are analyzed by immunoblotting to quantify the changes in thermal stability.
# OVCAR8-GFP-Luc cells = assay: Intraperitoneal OVCAR8 xenograft in NSG mice (bioluminescence imaging, ascites, in vivo phagocytosis)
# Protocol: Animal Experiments: All mouse studies were performed in accordance with the Guide for the Care and Use of Laboratory Animals from NIH, and a protocol (202000157) approved by the UMass Chan Medical School Institutional Animal Care and Use Committee (IACUC). Female NSG mice (n=3 per group), 6-7 weeks of age, were injected intraperitoneally with 4×10^6 OVCAR8/EmGFP-luc cells or OVCAR8-ΔGPAA1/EmGFP-luc cells. Tumors were analyzed using bioluminescence imaging beginning 7 days post-engraftment and continuing every 7 days until day 28. Mice were injected intraperitoneally with firefly D-luciferin at 140 mg/kg in PBS and images were acquired 10 min after luciferin injection using an IVIS Spectrum (Perkin Elmer). Total flux was quantified using Living Image 4.0 software (IVIS Imaging Systems).
# For macrophage depletion experiments, 200 μl of clodronate liposomes (Liposoma) was administered intraperitoneally every 4 days for 16 days before tumor implantation, followed by injection of 100 μl of clodronate liposomes every 4 days. Depletion of […] was verified by flow cytometry analysis peritoneal lavage using an APC anti-mouse F4/80 antibody (BioLegend, Cat #123116, clone BM8, 1:50 dilution).
# […] Tumors were analyzed by in vivo bioluminescence imaging as described above.
# In vivo Phagocytosis Assay: An in vivo phagocytosis assay was performed as described previously (Barkal et al., Nature 2019, 572(7769):392-396). Mice were implanted with 4×10^6 OVCAR8/EmGFP-luc cells as described above and 7 days later bestatin (100 mg/kg) was administered daily by intraperitoneal injection. After 10 days of bestatin treatment, peritoneal ascites was harvested. Single-cell suspensions of ascitic cells were blocked using TruStain FcX (anti-mouse CD16/32 antibody (BioLegend, Cat #101320) for 10 min at room temperature and then stained with an APC anti-mouse F4/80 antibody (BioLegend, Cat #123116, clone BM8, 1:50 dilution) for 30 min on ice in the dark. The percentage of cells undergoing phagocytosis was calculated as the percentage of F4/80+ EmGFP+ double-positive cells in the population.
smiles,measurement,setting,value
CC(C)C[C@H](NC(=O)[C@@H](O)[C@H](N)Cc1ccccc1)C(=O)O [bestatin],thermal stability of GPAA1,GPAA1,increased
same,"tumor growth (total flux, in vivo bioluminescence imaging)","OVCAR8-GFP-Luc cells; NSG mice, IP OVCAR8-GFP-Luc, bestatin 100 mg/kg/d IP vs vehicle (FIG. 10C)",significantly reduced
same,GFP+F4/80+ double-positive cells in ascites (in vivo phagocytosis),"OVCAR8-GFP-Luc cells; bestatin 100 mg/kg daily IP, 10 days, vs vehicle (FIG. 10E)",increase
same,ascites volume,"OVCAR8-GFP-Luc cells; bestatin 100 mg/kg/d IP, 10 days of treatment, vs vehicle (FIG. 10D)",significantly reduced
